Measured values: patent publication US6492328B2, “Novispirins: antimicrobial peptides” (priority 2000, dated 2002)
Read-outs that look alike come from different tables or passages of the source. Where no end group is shown, it is not given here.

Legend:
K. pneumoniae = experiment: Two stage radial diffusion assay with 10 mM HEPES, G10 variants (Table 8); format: cell-based; details: mean ± SEM, n = 3, in µg/mL
Description: (§1) Amidation (—NH2) of the carboxy terminus in some of the novispirin G10 variants was designed to increase overall positive charge. The sequences of these peptides and their net charge is shown below in Table 7. The fractional (and pH dependent) charge on histidine12 was ignored in this calculation.
(§2) In Table 8, MIC signifies minimal inhibitory concentration, as determined by two stage radial diffusion assays. […] Shaded boxes show results that represent a significant improvement of activity (p<0.01 by t-test), relative to novispirin G10. […] None of the above G10 novispirin derivatives caused any hemolysis of human red blood cells, even when tested at 80 μg/ml. It is likely that other cationic amino acids (e.g., lysine, ornithine, etc) could also be used in position 12 to achieve better activity in the presence of calcium and magnesium ions.

P. aeruginosa = experiment: as above; format: cell-based; details: mean ± SEM, n = 3, in µg/mL
Description: as §1, §2

S. aureus = experiment: as above; format: cell-based; details: mean ± SEM, n = 3, in µg/mL
Description: as §1, §2

E. coli = experiment: as above; format: cell-based; details: mean ± SEM, n = 3, in µg/mL
Description: as §1, §2

[1] = tested on: MRC-5 human lung fibroblasts; format: cell-based
Description: FIG. 5 compares the cytotoxicity of these peptides for MRC-5 human lung fibroblasts.

C. trachomatis serovar D = experiment: McCoy cell shell vial assay, inclusion-forming units; format: cell-based, Chlamydia trachomatis; set-up: dose or concentration left out as unconfirmed
Description: (§3) C. trachomatis serovar L2 causes invasive LGV, whereas serovars D and E represent typical genital strains. The effect of G-10 on Chlamydia trachomatis serovars (L2, D and E) was determined using standard and modified McCoy cell shell vial assays and varying concentrations of peptide. In the standard assay, the Chlamydia/peptide mixture was pre-incubated for 2 hr., then removed from the host cell monolayer before the 48-hr. incubation. In the modified assay, the pre-incubation mixture was left on the monolayer for the 48 hr. incubation. In a third assay, G-10 and Chlamydia were mixed and infected to cell monolayers without pre-incubation, and examined after 48 hr. Inclusion-forming units (IFUs) were scored to measure the peptide's inhibitory effect.

[2] = tested on: C. trachomatis serovar L2; experiment: as above; format: cell-based, Chlamydia trachomatis; set-up: dose or concentration left out as unconfirmed
Description: as §3

E. coli ML 35P = format: cell-based, Escherichia coli; details: mean ± SEM, n = 3
Description: Antimicrobial activity. Several different methods were used to examine the antimicrobial properties of novispirins, including: a) two-stage radial diffusion assays; b) colony counting assays; and c) standard microbroth dilution assays.
Antimicrobial activity was tested in media with low, normal or high salinity. In radial diffusion assays, this was accomplished by using a low salt “basic medium” containing 0.3 mg of trypticase soy broth powder/ml of 10 mM sodium phosphate buffer, pH 7.4. Media with “normal” or “high” salinity were prepared by supplementing the basic medium with 100 mM NaCl to obtain media with normal salinity, or with 175-200 mM NaCl to obtain high salt media. Retention of activity against P. aeruginosa in high salt media is important because airway fluids from cystic fibrosis patients are reported to show hypersalinity, and other sites—including skin surfaces surfaces and the urinary bladder—may have locally high salt concentrations.
The relative activities of ovispirin and the novispirins against two organisms, E. coli and a multi-resistant strain of P. aeruginosa, are shown in FIG. 1. The MICs were obtained by radial diffusion assays performed under low, normal, and high salt conditions (which are denoted along the X-axis as 0, 100 and 200 mM NaCl, respectively).
Table 1 compares the activity of novispirins against these Gram-negative bacteria with its activity against Listeria monocytogenes, Staphylococcus aureus and C. albicans. […] Note that novispirins show activity against these Gram-positive bacteria when tested in physiological (100 mM NaCl) salt concentrations, and also that Novispirin G10 is quite active against C. albicans. Although neither ovispirin nor novispirins retained activity against C. albicans or the Gram positives under very high salt conditions (200 mM NaCl), they remained active against the Gram-negatives under these conditions. Consequently, even if the airways' NaCl concentrations are exceptionally high in CF patients, this factor will not impair the ability of ovispirin or novispirins to kill P. aeruginosa.

S. maltophilia 42CK = experiment: Novispirins vs S. maltophilia (Table 5); format: cell-based, Stenotrophomonas maltophilia; set-up: unit not given here; details: strain 42CK
Description: (§4) Microorganisms used in this study included 13 different Pseudomonas aeruginosa strains. The AML-654 and LZ-1 strains are recent clinical isolates from the UCLA Clinical Microbiology laboratory. Nine strains (5 mucoid, 4 nonmucoid) were recent CF isolates provided by Dr. Lisa Saiman. All of the P. aeruginosa strains except PAO-1 strain were resistant to multiple conventional antibiotics, and all 9 CF isolates were resistant to 250 μg/ml of tobramycin. We have also tested 5 strains each of Stenotrophomonas maltophilia and Burkholderia cepacia from CF patients (also provided by Dr. Lisa Saiman), two strains of Escherichia coli (ML-35p and DH-5a), and single strains of Staphylococcus aureus[MRSA (methicillin-resistant S. aureus)] and C. albicans.

S. maltophilia 47CG = experiment: Novispirins vs S. maltophilia (Table 5); format: cell-based, Stenotrophomonas maltophilia; set-up: unit not given here; details: strain 47CG
Description: as §4

S. maltophilia 36CN = experiment: Novispirins vs S. maltophilia (Table 5); format: cell-based, Stenotrophomonas maltophilia; set-up: unit not given here; details: strain 36CN
Description: as §4

S. maltophilia 51Cl = experiment: Novispirins vs S. maltophilia (Table 5); format: cell-based, Stenotrophomonas maltophilia; set-up: unit not given here; details: strain 51Cl
Description: as §4

S. maltophilia 18CP = experiment: Novispirins vs S. maltophilia (Table 5); format: cell-based, Stenotrophomonas maltophilia; set-up: unit not given here; details: strain 18CP
Description: as §4

human red blood cells = format: cell-based
Description: Hemolytic Activity: This was tested by incubating various concentrations of peptide with a suspension (2.8% v/v) of washed human, murine, sheep or bovine red cells in PBS. After 30 min at 37C, the tubes were centrifuged and the percentage of total hemoglobin released to the supernatant was measured.
Similar results were obtained with murine red blood cells. In contrast, none of these peptides were appreciably hemolytic towards sheep or bovine red blood cells.

C. trachomatis serovar E = experiment: McCoy cell shell vial assay, inclusion-forming units; format: cell-based, Chlamydia trachomatis; details: 100 μg/ml, pre-incubation assays
Description: as §3

[3] = Acute toxicity studies in mice, intravenous; format: in vivo
Description: In vivo toxicity. Acute toxicity studies were performed in mice. 3/3 mice survived an intravenous dose of 10 mg novispirin G10/kg body weight, and 1/3 survived a dose of 20 mg/kg.

Substance: KNLRRIIRKGIHIIKKYG-OH [G10 Novispirin, K N L R R I I R K G I H I I K K Y G]
- MIC (K. pneumoniae; +1 mM Ca): >250
- MIC (K. pneumoniae; +1 mM Mg): >250
- MIC (K. pneumoniae; No Ca/Mg): 0.17 ± 0.03
- MIC (P. aeruginosa; +1 mM Ca): >250
- MIC (P. aeruginosa; +1 mM Mg): >250
- MIC (P. aeruginosa; No Ca/Mg): 0.17 ± 0.04
- MIC (S. aureus; +1 mM Ca): 99.0 ± 5.7
- MIC (S. aureus; +1 mM Mg): >79
- MIC (S. aureus; No Ca/Mg): 22.7 ± 2.1
- MIC (E. coli; +1 mM Ca): 21.2 ± 0.36
- MIC (E. coli; +1 mM Mg): 20.3 ± 0.1
- MIC (E. coli; No Ca/Mg): 0.09 ± 0.02
- cytotoxicity for MRC-5 human lung fibroblasts [1]: virtually devoid of cytotoxicity
- serovar D IFUs reduced (C. trachomatis serovar D): 99.4-100%
- serovar L2 IFUs reduced [2]: 92.7-99.1%
- MIC (E. coli ML 35P; Low Salt (+0 mM NaCl)): 0.1 ± 0.0 µg/mL
- MIC (E. coli ML 35P; Normal salinity (+100 mM NaCl)): 0.1 ± 0.0 µg/mL
- MIC (E. coli ML 35P; Very high salinity (+200 mM NaCl)): 1.8 ± 0.8 µg/mL
- activity vs S. maltophilia (S. maltophilia 42CK; +100 mM NaCl): 0.67
- activity vs S. maltophilia (S. maltophilia 42CK; +175 mM NaCl): 10.0
- activity vs S. maltophilia (S. maltophilia 42CK; LOW SALT CONDITIONS): 0.43
- activity vs S. maltophilia (S. maltophilia 47CG; +100 mM NaCl): 0.68
- activity vs S. maltophilia (S. maltophilia 47CG; +175 mM NaCl): 0.63
- activity vs S. maltophilia (S. maltophilia 47CG; LOW SALT CONDITIONS): 0.08
- activity vs S. maltophilia (S. maltophilia 36CN; +100 mM NaCl): 0.29
- activity vs S. maltophilia (S. maltophilia 36CN; +175 mM NaCl): 0.36
- activity vs S. maltophilia (S. maltophilia 36CN; LOW SALT CONDITIONS): 0.15
- activity vs S. maltophilia (S. maltophilia 51Cl; +100 mM NaCl): 3.57
- activity vs S. maltophilia (S. maltophilia 51Cl; +175 mM NaCl): 8.18
- activity vs S. maltophilia (S. maltophilia 51Cl; LOW SALT CONDITIONS): 0.45
- activity vs S. maltophilia (S. maltophilia 18CP; +100 mM NaCl): 0.70
- activity vs S. maltophilia (S. maltophilia 18CP; +175 mM NaCl): 1.30
- activity vs S. maltophilia (S. maltophilia 18CP; LOW SALT CONDITIONS): 0.40
- hemolytic activity for human red blood cells (human red blood cells): nonhemolytic
- inhibition of C. trachomatis serovar E (C. trachomatis serovar E): completely inhibited
- peak level ([3]; 10 mg/kg dose, if blood volume of a mouse is 5% of its mass): approximately 200 micrograms/ml
- mice survived ([3]; intravenous dose of 10 mg/kg body weight): 3/3
- mice survived ([3]; intravenous dose of 20 mg/kg): 1/3
